Assay results as given in patent US20170190671A1, “BIS(ARYL)CATECHOL DERIVATIVES AS HERBICIDES” (E I DU PONT DE NEMOURS AND COMPANY, priority 2014, published 2017).

How the values were obtained:
Type in all cases: in vivo
[1] = system: barnyardgrass (Echinochloa crus-galli); test: Test B flooded paddy; conditions: Echinochloa crus-galli, 336 h; 250 g ai/ha, Flood, 13 to 15 days, scale 0 (no effect) to 100 (complete control); read-out: Plant response rating, Barnyardgrass
Method in brief: (§1)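 Greenhouse pots flooded to 3 cm above soil at time of treatment received compound via the water, which stayed at that level.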

[2] = system: ducksalad (Heteranthera limosa); test: Test B flooded paddy; conditions: Heteranthera limosa, 336 h; 250 g ai/ha, Flood, 13 to 15 days, scale 0 (no effect) to 100 (complete control); read-out: Plant response rating, Ducksalad
Method in brief: as §1

rice (Oryza sativa) = test: Test B flooded paddy; conditions: Oryza sativa, 336 h; 250 g ai/ha, Flood, 13 to 15 days, scale 0 (no effect) to 100 (complete control); read-out: Plant response rating, Rice
Method in brief: as §1

[3] = system: sedge, umbrella (small-flower umbrella sedge, Cyperus difformis); test: Test B flooded paddy; conditions: Cyperus difformis, 336 h; 250 g ai/ha, Flood, 13 to 15 days, scale 0 (no effect) to 100 (complete control); read-out: Plant response rating, Sedge, Umbrella
Method in brief: as §1

[4] = system: Italian ryegrass (Lolium multiflorum); test: Test A postemergence; conditions: Lolium multiflorum, post-emergence, 240 h, 1000 g ai/ha, 0 to 100 scale, read-out: Plant response rating, Ryegrass, Italian
Method in brief: (§2)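 Visual injury scored 0–100 (100 = complete control) against untreated controls about 10 days after treatment in a greenhouse. Test chemicals, formulated with surfactant in non-phytotoxic solvent, were sprayed on soil preemergence or on 2-10 cm, one- to two-leaf plants postemergence.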

[5] = system: pigweed (Amaranthus retroflexus); test: Test A postemergence; conditions: Amaranthus retroflexus, post-emergence, 240 h, 1000 g ai/ha, 0 to 100 scale, read-out: Plant response rating, Pigweed
Method in brief: as §2

corn (Zea mays) = test: Test A postemergence; conditions: Zea mays, post-emergence, 240 h, 1000 g ai/ha, 0 to 100 scale
Method in brief: as §2

[6] = system: wheat (Triticum aestivum); test: Test A postemergence; conditions: Triticum aestivum, post-emergence, 240 h, 1000 g ai/ha, 0 to 100 scale, read-out: Plant response rating, Wheat
Method in brief: as §2

[7] = system: barnyardgrass (Echinochloa crus-galli); test: Test A postemergence; conditions: Echinochloa crus-galli, post-emergence, 240 h, 1000 g ai/ha, 0 to 100 scale, 0 no effect, 100 complete control, read-out: Plant response rating, Barnyardgrass
Method in brief: as §2

kochia (Kochia scoparia) [8] = test: Test A postemergence; conditions: Bassia scoparia, post-emergence, 240 h, 1000 g ai/ha, 0 to 100 scale, read-out: Plant response rating, Kochia
Method in brief: as §2

[9] = system: galium (catchweed bedstraw, Galium aparine); test: Test A postemergence; conditions: Galium, post-emergence, 240 h, 1000 g ai/ha, 0 to 100 scale, read-out: Plant response rating, Galium
Method in brief: as §2

[10] = system: blackgrass (Alopecurus myosuroides); test: Test A postemergence; conditions: Alopecurus myosuroides, post-emergence, 240 h, 1000 g ai/ha, 0 to 100 scale, read-out: Plant response rating, Blackgrass
Method in brief: as §2

[11] = system: giant foxtail (Setaria faberii); test: Test A postemergence; conditions: Setaria faberi, post-emergence, 240 h, 1000 g ai/ha, 0 to 100 scale, read-out: Plant response rating, Foxtail, Giant
Method in brief: as §2

[12] = system: ragweed (common ragweed, Ambrosia elatior); test: Test A postemergence; conditions: Ambrosia artemisiifolia, post-emergence, 240 h, 1000 g ai/ha, 0 to 100 scale, read-out: Plant response rating, Ragweed
Method in brief: as §2

[13] = system: morningglory (Ipomoea coccinea); test: Test C postemergence; conditions: Ipomoea, post-emergence, 336 h, Postemergence, scale 0 to 100, read-out: Plant response rating, Morningglory
Method in brief: (§3)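 Visual ratings (0 none to 100 complete control) were made 13 to 15 days after treatment, relative to controls. Test chemicals, formulated in a non-phytotoxic solvent mixture with surfactant, were applied in the greenhouse preemergence to seeded loam-sand soil or postemergence to plants 2 to 18 cm tall.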

[14] = system: galium (catchweed bedstraw, Galium aparine); test: Test C postemergence; conditions: Galium, post-emergence, 336 h, Postemergence, scale 0 to 100, read-out: Plant response rating, Galium
Method in brief: as §3

[15] = system: giant foxtail (Setaria faberii); test: Test C postemergence; conditions: Setaria faberi, post-emergence, 336 h, Postemergence, scale 0 to 100, read-out: Plant response rating, Foxtail, Giant
Method in brief: as §3

[16] = system: Italian ryegrass (Lolium multiflorum); test: Test A preemergence; conditions: Lolium multiflorum, pre-emergence, 240 h, 1000 g ai/ha, 0 to 100 scale, read-out: Plant response rating, Ryegrass, Italian
Method in brief: as §2

[17] = system: pigweed (Amaranthus retroflexus); test: Test A preemergence; conditions: Amaranthus retroflexus, pre-emergence, 240 h, 1000 g ai/ha, 0 to 100 scale, read-out: Plant response rating, Pigweed
Method in brief: as §2

[18] = system: barnyardgrass (Echinochloa crus-galli); test: Test A preemergence; conditions: Echinochloa crus-galli, pre-emergence, 240 h, 1000 g ai/ha, 0 to 100 scale, read-out: Plant response rating, Barnyardgrass
Method in brief: as §2

kochia (Kochia scoparia) [19] = test: Test A preemergence; conditions: Bassia scoparia, pre-emergence, 240 h, 1000 g ai/ha, 0 to 100 scale, read-out: Plant response rating, Kochia
Method in brief: as §2

[20] = system: giant foxtail (Setaria faberii); test: Test A preemergence; conditions: Setaria faberi, pre-emergence, 240 h, 1000 g ai/ha, 0 to 100 scale, read-out: Plant response rating, Foxtail, Giant
Method in brief: as §2

[21] = system: ragweed (common ragweed, Ambrosia elatior); test: Test A preemergence; conditions: Ambrosia artemisiifolia, pre-emergence, 240 h, 1000 g ai/ha, 0 to 100 scale, read-out: Plant response rating, Ragweed
Method in brief: as §2

Work on `Fc1cccc(Oc2ncc(Cl)cn2)c1Oc1ncc(Br)cn1` [Compound 27, 5-bromo-2-[2-fluoro-6-[(5-chloro-2-pyrimidinyl)oxy]phenoxy]pyrimidine] yielded a pest or weed control at 250 g/ha [1] of 50%, a pest or weed control at 250 g/ha [2] of 80% and a plant injury at 250 g/ha (rice (Oryza sativa)) of 60%. For the same compound, the pest or weed control at 250 g/ha [3] was 85%, the pest or weed control at 1000 g/ha [4] was 90% and the pest or weed control at 1000 g/ha [5] was 100%. It also gave a Corn plant response rating (crop injury, 0 = no effect, 100 = complete kill) at 1000 g/ha (corn (Zea mays)) of 40%, a plant injury at 1000 g/ha [6] of 50% and a pest or weed control at 1000 g/ha [7] of 90%. The pest or weed control at 1000 g/ha (kochia (Kochia scoparia) [8]) was 90%, the pest or weed control at 1000 g/ha [9] was 90% and the pest or weed control at 1000 g/ha [10] was 80%. The pest or weed control at 1000 g/ha [11] was 90%, the pest or weed control at 1000 g/ha [12] was 80% and the pest or weed control at 31 g/ha ([13]; 31 g ai/ha) was 65%. The pest or weed control at 62 g/ha ([13]; 62 g ai/ha) was 75%, the pest or weed control at 125 g/ha ([13]; 125 g ai/ha) was 70% and the pest or weed control at 250 g/ha ([13]; 250 g ai/ha) was 90%. For the same compound, the pest or weed control at 31 g/ha ([14]; 31 g ai/ha) was 70%, the pest or weed control at 62 g/ha ([14]; 62 g ai/ha) was 90% and the pest or weed control at 125 g/ha ([14]; 125 g ai/ha) was 95%. For the same compound, the pest or weed control at 250 g/ha ([14]; 250 g ai/ha) was 95%, the pest or weed control at 31 g/ha ([15]; 31 g ai/ha) was 0% and the pest or weed control at 62 g/ha ([15]; 62 g ai/ha) was 5%. The pest or weed control at 125 g/ha ([15]; 125 g ai/ha) was 5%, the pest or weed control at 250 g/ha ([15]; 250 g ai/ha) was 10% and the pest or weed control at 1000 g/ha [16] was 70%. The pest or weed control at 1000 g/ha [17] was 100%, the pest or weed control at 1000 g/ha [18] was 100% and the pest or weed control at 1000 g/ha (kochia (Kochia scoparia) [19]) was 100%. It also gave a pest or weed control at 1000 g/ha [20] of 100% and a pest or weed control at 1000 g/ha [21] of 90%.
